Data on one compound can be found in ChEMBL document CHEMBL5518238, “Structure-Activity Relationship (SAR) Studies of Novel Monovalent AR/AR-V7 Dual Degraders with Potent Efficacy against Advanced Prostate Cancer” (J Med Chem, 2024).

In general, DC50 refers to the concentration giving 50% degradation. For orientation: AUC(0-inf) means the area under the concentration-time curve extrapolated to infinity. A low value points to less exposure. For orientation: MRT means a mean duration of stay, worked out from the concentration-time curve.

Data set [1] addresses T1, Androgen receptor (Homo sapiens) (UniProt P10275).
T1 sequence (whole entry): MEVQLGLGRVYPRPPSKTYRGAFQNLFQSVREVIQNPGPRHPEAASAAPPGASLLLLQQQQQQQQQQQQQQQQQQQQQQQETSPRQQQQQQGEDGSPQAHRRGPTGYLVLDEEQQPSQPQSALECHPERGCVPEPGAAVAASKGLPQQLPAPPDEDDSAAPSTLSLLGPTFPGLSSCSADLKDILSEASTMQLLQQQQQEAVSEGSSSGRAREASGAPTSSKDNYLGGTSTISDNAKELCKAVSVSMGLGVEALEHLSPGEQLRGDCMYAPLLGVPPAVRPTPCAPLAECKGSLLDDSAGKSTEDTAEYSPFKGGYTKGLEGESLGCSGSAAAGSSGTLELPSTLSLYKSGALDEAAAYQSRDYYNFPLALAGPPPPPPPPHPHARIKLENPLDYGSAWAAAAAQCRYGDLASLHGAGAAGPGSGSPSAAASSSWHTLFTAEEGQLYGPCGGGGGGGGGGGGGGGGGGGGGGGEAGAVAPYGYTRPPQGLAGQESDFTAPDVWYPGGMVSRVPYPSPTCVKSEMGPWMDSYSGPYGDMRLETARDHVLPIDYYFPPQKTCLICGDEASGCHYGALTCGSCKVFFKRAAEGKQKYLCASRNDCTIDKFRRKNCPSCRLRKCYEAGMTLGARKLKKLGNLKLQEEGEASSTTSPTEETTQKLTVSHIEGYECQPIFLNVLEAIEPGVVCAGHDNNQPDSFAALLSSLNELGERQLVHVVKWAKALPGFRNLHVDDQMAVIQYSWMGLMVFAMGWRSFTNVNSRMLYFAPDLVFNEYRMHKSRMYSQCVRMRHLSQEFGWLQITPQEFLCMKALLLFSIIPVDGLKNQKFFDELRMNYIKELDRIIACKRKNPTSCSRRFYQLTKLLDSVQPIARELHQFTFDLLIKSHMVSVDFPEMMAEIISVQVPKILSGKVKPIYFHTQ
Put plainly: (§1) Induction of AR degradation in human 22Rv1 cells incubated for 24 hrs by Western blot analysis. The following applies: dose 1-10 µM. It counts as cell-based. A general note: In western blotting, separated proteins are transferred to a membrane and probed.

Data set [2] addresses T2, Androgen receptor (Homo sapiens, UniProt P10275).
T2 sequence (P10275 whole entry): T1 sequence (whole entry)
Described as §1. It counts as cell-based.

Data set [3] concerns the target T1, Androgen receptor (Homo sapiens). Nature of the data set: Induction of AR degradation in human 22Rv1 cells at 10 uM incubated for 24 hrs in presence of CHX by Western blot analysis. It counts as cell-based.
For data set [4] the target is unchanged. Nature of the data set: Binding affinity to AR (unknown origin) assessed as thermal stabilization at 10 uM incubated for 2 hrs by CETSA analysis. It counts as cell-based. Particulars: 22Rv1.
The test system of data set [5] is Androgen receptor (Homo sapiens), P10275 [UNDEFINED MUTATION]. Put plainly: Binding affinity to AR-V7 (unknwon origin) assessed as thermal stabilization at 10 uM incubated for 2 hrs by CETSA analysis. It counts as cell-based. Particulars: 22Rv1.
Data set [6] relates to CWR22R. Put plainly: Downregulation of NCAPD3 mRNA expression in human 22Rv1 cells at 10 uM incubated for 24 hrs by qRT-PCR analysis. It counts as functional, cell-based. A general note: Real-time PCR tracks product formation cycle by cycle.
Data set [7] deals with CWR22R. Nature of the data set: Downregulation of NKX3-1 mRNA expression in human 22Rv1 cells at 10 uM incubated for 24 hrs by qRT-PCR analysis. It counts as functional, cell-based.
Data set [8] concerns CWR22R. Put plainly: Downregulation of MYC mRNA expression in human 22Rv1 cells at 10 uM incubated for 24 hrs by qRT-PCR analysis. It counts as functional, cell-based.
The subject of data set [9] is CWR22R. Nature of the data set: Induction of cell cycle arrest in human 22Rv1 cells assessed as accumulation of cells at G0/G1 phase at 5 uM incubated for 24 hrs by DAPI staining based flow cytometric analysis (reference value: 26.3 %). It counts as functional. A general note: In flow cytometry, cells or beads pass a laser one at a time.
Data set [10] has as its system CWR22R. Put plainly: Induction of apoptosis in human 22Rv1 cells assessed as effect on PARP1 level incubated for 24 hrs by Western blot analysis. It counts as functional, cell-based. Particulars: dose <= 10.0 µM.
A short description of data set [11]: AUC (0 to infinity) in Sprague-Dawley rat at 50 mg/kg, po by LC-MS/MS analysis. It counts as ADME, organism-based. Particulars: in vivo.
Data set [12] can be described thus: MRT (0 to infinity) in Sprague-Dawley rat at 5 mg/kg, iv by LC-MS/MS analysis. It counts as ADME, organism-based. The following applies: in vivo.
Data set [13] concerns CWR22R. Put plainly: Antitumor activity against human 22Rv1 cells xenografted in NSG mouse assessed as change in tumor volume at 30 mg/kg, IG administered once daily for 21 days. Particulars: time 21.0 day. It counts as functional, organism-based.
Data set [14] can be described thus: Toxicity in NSG mouse xenografted with human 22Rv1 cells assessed as liver damage t at 30 mg/kg, IG administered once daily for 21 days by H and E staining based analysis. It counts as organism-based, CWR22R. The following applies: in vivo, po, 504 h, time 21 day.
The nature of data set [15]: Toxicity in NSG mouse xenografted with human 22Rv1 cells assessed as lung damage t at 30 mg/kg, IG administered once daily for 21 days by H and E staining based analysis. It counts as organism-based, CWR22R. Particulars: in vivo, po, 504 h, time 21 day.
For data set [16], the system named is CWR22R. Put plainly: Antitumor activity against human 22Rv1 cells xenografted in NSG mouse assessed as decrease in AR level in tumor at 10 mg/kg, IG administered once daily for 3 days by […] based analysis. It counts as functional, organism-based. Particulars: time 3.0 day.

Molecules are shown by their SMILES. Activity calls are given as the source filed them. No cut-off for these calls is given here.

Regarding `CC1(C)C(=O)N(c2ccc(C#N)c(C(F)(F)F)c2)C(=O)N1CCNc1ccc(F)c2ncccc12`, the Activity entry in data set [1] was “Dose-Dependent Effect”; in data set [9] it was 50.6%; in data set [10], “Dose-Dependent Effect”; in data set [14], “Non-Toxic”; in data set [15], “Non-Toxic”. Besides, the DC50 in [2] stood at 2.67 µM. In addition, the outcome in data set [3], in data set [6], in [7], in data set [8], in data set [13] and in data set [16] was Active. Also, the outcome in [4] and in [5] was inactive. Moreover, the AUC(0-inf) in data set [11] was 3470 ng·h/mL. Moreover, the MRT in data set [12] was determined as 4.1 h.
